Measurements reported in patent US6403082B1, “Bacteriocins, transport and vector system and method of use thereof” (priority 1996, dated 2002).
Ends that are not written are not given here.

Columns and labels:
Test in all cases: Spot test of partially purified bacteriocins on strains grown on agar
Brochothrix = test system: Brochothrix
Streptococcus = test system: Streptococcus
[1] = test system: Clostridia vegetative cells; format: cell-based, Clostridium
Clostridia spores = format: cell-based, Clostridium
Listeria = test system: Listeria
Lactococcus = test system: Lactococcus
Pediococcus = test system: Pediococcus
Staphylococcus = test system: Staphylococcus
Enterococcus = test system: Enterococcus
G negative strains = format: cell-based
Carnobacteria = test system: Carnobacteria
Lactobacillus = test system: Lactobacillus
Leuconostoc = test system: Leuconostoc
[2] = test system: Bacillus vegetative cells; format: cell-based
Bacillus spores = format: cell-based

## Pedi PA-1: pediocin PA-1, a bacteriocin from Pediococcus acidilactici PAC1.0 (KYYGNGVTCGKHSCSVDWGKATTCIINNGAMAWATGGHQGNHKC; ends and bridges not checked; cysteine pairing not given here; UniProt P29430 19-62, looked up)
Brochothrix; 1AU (10 μl/spot of 100 AU/ml)
  Number of strains inhibited/Number of strains tested: 0/14
Brochothrix; 8AU (10 μl/spot of 800 AU/ml)
  Number of strains inhibited/Number of strains tested: 0/14
Streptococcus; 1AU (10 μl/spot of 100 AU/ml)
  Number of strains inhibited/Number of strains tested: 0/3
Streptococcus; 8AU (10 μl/spot of 800 AU/ml)
  Number of strains inhibited/Number of strains tested: 0/3
[1]; 1AU (10 μl/spot of 100 AU/ml)
  Number of strains inhibited/Number of strains tested: 0/8
[1]; 8AU (10 μl/spot of 800 AU/ml)
  Number of strains inhibited/Number of strains tested: 0/8
Clostridia spores; 1AU (10 μl/spot of 100 AU/ml)
  Number of strains inhibited/Number of strains tested: 0/7
Clostridia spores; 8AU (10 μl/spot of 800 AU/ml)
  Number of strains inhibited/Number of strains tested: 0/7
Listeria; 1AU (10 μl/spot of 100 AU/ml)
  Number of strains inhibited/Number of strains tested: 39/42
Listeria; 8AU (10 μl/spot of 800 AU/ml)
  Number of strains inhibited/Number of strains tested: 40/42
Lactococcus; 1AU (10 μl/spot of 100 AU/ml)
  Number of strains inhibited/Number of strains tested: 0/8
Lactococcus; 8AU (10 μl/spot of 800 AU/ml)
  Number of strains inhibited/Number of strains tested: 0/8
Pediococcus; 1AU (10 μl/spot of 100 AU/ml)
  Number of strains inhibited/Number of strains tested: 0/3
Pediococcus; 8AU (10 μl/spot of 800 AU/ml)
  Number of strains inhibited/Number of strains tested: 2/3
Staphylococcus; 1AU (10 μl/spot of 100 AU/ml)
  Number of strains inhibited/Number of strains tested: 0/7
Staphylococcus; 8AU (10 μl/spot of 800 AU/ml)
  Number of strains inhibited/Number of strains tested: 1/7
Enterococcus; 1AU (10 μl/spot of 100 AU/ml)
  Number of strains inhibited/Number of strains tested: 7/14
Enterococcus; 8AU (10 μl/spot of 800 AU/ml)
  Number of strains inhibited/Number of strains tested: 11/14
G negative strains; 1AU (10 μl/spot of 100 AU/ml)
  Number of strains inhibited/Number of strains tested: 0/29
G negative strains; 8AU (10 μl/spot of 800 AU/ml)
  Number of strains inhibited/Number of strains tested: 0/29
Carnobacteria; 1AU (10 μl/spot of 100 AU/ml)
  Number of strains inhibited/Number of strains tested: 7/19
Carnobacteria; 8AU (10 μl/spot of 800 AU/ml)
  Number of strains inhibited/Number of strains tested: 7/19
Lactobacillus; 1AU (10 μl/spot of 100 AU/ml)
  Number of strains inhibited/Number of strains tested: 1/17
Lactobacillus; 8AU (10 μl/spot of 800 AU/ml)
  Number of strains inhibited/Number of strains tested: 2/17
Leuconostoc; 1AU (10 μl/spot of 100 AU/ml)
  Number of strains inhibited/Number of strains tested: 4/9
Leuconostoc; 8AU (10 μl/spot of 800 AU/ml)
  Number of strains inhibited/Number of strains tested: 5/9
[2]; 1AU (10 μl/spot of 100 AU/ml)
  Number of strains inhibited/Number of strains tested: 2/5
[2]; 8AU (10 μl/spot of 800 AU/ml)
  Number of strains inhibited/Number of strains tested: 2/5
Bacillus spores; 1AU (10 μl/spot of 100 AU/ml)
  Number of strains inhibited/Number of strains tested: 0/5
Bacillus spores; 8AU (10 μl/spot of 800 AU/ml)
  Number of strains inhibited/Number of strains tested: 0/5
